Test system: primary normal human melanocytes
Experiment: melanogenesis assay (C14-tyrosine incorporation)
Format: cell-based
Conditions: incubation for 3 days, average, n=3
Protocol: By way of example, the test for the compound 6-methyl-8-(2,6,6-trimethylcyclohex-1-en-1-yl)octa-3,5-dien-2-one is given.
A melanogenesis assay was carried out after incubation for 3 days of primary normal human melanocytes with test substance compared to control. The numbers given in the table indicate the melanogenesis rates based on the untreated control (=100%) (measured as C14-tyrosine incorporation).

CC(=O)/C=C/C=C(\C)CCC1=C(C)CCCC1(C)C [(3E,5E)-6-methyl-8-(2,6,6-trimethylcyclohex-1-en-1-yl)octa-3,5-dien-2-one]
melanogenesis rate based on the untreated control (=100%), measured as C14-tyrosine incorporation (0.1 μg/ml test substance): 127%
melanogenesis rate based on the untreated control (=100%), measured as C14-tyrosine incorporation (1 μg/ml test substance): 157%
